Consider 3 substances from PMC9482650, “Quantitative fragmentomics allow affinity mapping of interactomes” (Nature Communications, 2022).

One experiment has as its system DLG1. As to the kind of experiment: PBM-AP-MS from Jurkat extract. Type of experiment: binding, Homo sapiens. The settings on record: prey DLG1, PBM peptide bait.
In the next experiment the test system is CASK. Briefly: PBM-AP-MS from Jurkat extract. Type of experiment: binding, Homo sapiens. The settings on record: prey CASK, PBM peptide bait.
A further experiment has as its target PDZ-proteins. Briefly: Estimated PPI affinity, additive association constants of all PDZ sites.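 Also: calculated estimate, not directly measured: domain-motif affinities from holdup assays, association constants summed over all PDZ sites, one motif bound at a time, weak interactions ignored, giving a lower limit.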 Type of experiment: binding, human.

Ends that are not written are not given here. * marks the point of attachment. Biotin = O=C1N[C@H]2[C@H](CS[C@H]2CCCCC(=O)*)N1; ttds = NCCCOCCOCCOCCCNC(=O)CCC(=O)*

Text for PDZ-proteins: We used the previously generated domain-motif interactome, consisting of the composite affinities (i.e., taken from the most reliable holdup method; see above) to estimate affinities of PPIs. We assumed that a multidomain PDZ-protein can only interact with a single PBM at the same time (Eq. (4)):4 PDZ+PBM⇌(PDZ−PBM)site1,or(PDZ−PBM)site2,or(PDZ−PBM)siten
Using this approximation, as proposed by others before[45], the association constant of a multi-site interaction is the sum of the association constants of all sites (Eq. (5)):5 Ka,additive=[PDZ−PBM]site1+[PDZ−PBM]site2+…+[PDZ−PBM]siten/[PDZ]×[PBM]=∑Ka,site
The contribution of unmeasurable weak interactions was also neglected in the calculations.

As for HPV18E6, the entries for the “Enrichment values compared to biotin controls” value with DLG1 and with CASK were 519.3 and 15.2, respectively. Also, the “final additive pKd” value at PDZ-proteins (PDZ-protein AHNAK) is listed as 3.5; at PDZ-proteins (PDZ-protein CASK), 3.5; at PDZ-proteins (PDZ-protein DLG1), 5.948; on PDZ-proteins (PDZ-protein InaDl) it was 3.7336; on PDZ-proteins (PDZ-protein LAP2) it was 3.615; on PDZ-proteins (PDZ-protein LIN7C), 4.171. Moreover, the “final additive pKd” value at PDZ-proteins (PDZ-protein LNX2) is 3.17; on PDZ-proteins (PDZ-protein MAGI3), 5.558; on PDZ-proteins (PDZ-protein MPP5), 3.5; on PDZ-proteins (PDZ-protein MPP6), 3.5; at PDZ-proteins (PDZ-protein MPP7), 3.5; on PDZ-proteins (PDZ-protein NHERF2) it was 3.5. Besides, the “final additive pKd” value on PDZ-proteins (PDZ-protein PDLIM2) is 3.5; on PDZ-proteins (PDZ-protein PDLIM5), 3.5; at PDZ-proteins (PDZ-protein PDLIM7) it was 3.5; on PDZ-proteins (PDZ-protein PSMD9) it was 3.5; on PDZ-proteins (PDZ-protein SCRIB), 5.064; on PDZ-proteins (PDZ-protein SNTB1), 5.229. Also, the “final additive pKd” value was 4.58 at PDZ-proteins (PDZ-protein SNTB2), 4.554 on PDZ-proteins (PDZ-protein SNX27), 5.349 at PDZ-proteins (PDZ-protein SYNJ2BP) and 4.665 on PDZ-proteins (PDZ-protein TX1B3).
For HPV30E6 ({Biotin-ttds}-RHTTSTETAV), the “Enrichment values compared to biotin controls” value in the experiment on DLG1 turned out to be 488.6; in the experiment with CASK, 11.1. The “final additive pKd” value is given as 3.716 at PDZ-proteins (PDZ-protein AHNAK); 3.5 on PDZ-proteins (PDZ-protein CASK); 5.729 at PDZ-proteins (PDZ-protein DLG1); 4.166 at PDZ-proteins (PDZ-protein InaDl); 4.458 at PDZ-proteins (PDZ-protein LAP2); 4.187 at PDZ-proteins (PDZ-protein LIN7C). For the same substance, the “final additive pKd” value at PDZ-proteins (PDZ-protein LNX2) is 3.771; on PDZ-proteins (PDZ-protein MAGI3), 5.357; at PDZ-proteins (PDZ-protein MPP5) it was 3.5; at PDZ-proteins (PDZ-protein MPP6), 3.5; at PDZ-proteins (PDZ-protein MPP7), 3.5; at PDZ-proteins (PDZ-protein NHERF2) it was 3.5. Also, the “final additive pKd” value is on record as 3.5 on PDZ-proteins (PDZ-protein PDLIM2); 3.5 on PDZ-proteins (PDZ-protein PDLIM5); 3.5 on PDZ-proteins (PDZ-protein PDLIM7); 3.5 on PDZ-proteins (PDZ-protein PSMD9); 5.522 on PDZ-proteins (PDZ-protein SCRIB); 5.102 on PDZ-proteins (PDZ-protein SNTB1). The “final additive pKd” value on PDZ-proteins (PDZ-protein SNTB2) is recorded as 4.675; at PDZ-proteins (PDZ-protein SNX27) it was 5.636; on PDZ-proteins (PDZ-protein SYNJ2BP) it was 5.355; on PDZ-proteins (PDZ-protein TX1B3) it was 4.653.
As to HPV35E6 ({Biotin-ttds}-SKPTRRETEV), the “Enrichment values compared to biotin controls” value in the experiment with DLG1 was 596.6; in the experiment with CASK it was 12.7. Further, the “final additive pKd” value at PDZ-proteins (PDZ-protein AHNAK) is recorded as 3.5; on PDZ-proteins (PDZ-protein CASK), 3.5; on PDZ-proteins (PDZ-protein DLG1) it was 5.779; at PDZ-proteins (PDZ-protein InaDl) it was 3.5; at PDZ-proteins (PDZ-protein LAP2), 3.6933; on PDZ-proteins (PDZ-protein LIN7C), 3.759. In addition, the “final additive pKd” value at PDZ-proteins (PDZ-protein LNX2) was 3.5; on PDZ-proteins (PDZ-protein MAGI3), 5.407; on PDZ-proteins (PDZ-protein MPP5), 3.5; on PDZ-proteins (PDZ-protein MPP6), 3.5; at PDZ-proteins (PDZ-protein MPP7), 3.5; at PDZ-proteins (PDZ-protein NHERF2), 3.774. The “final additive pKd” value is listed as 3.5 on PDZ-proteins (PDZ-protein PDLIM2); 3.5 at PDZ-proteins (PDZ-protein PDLIM5); 3.5 at PDZ-proteins (PDZ-protein PDLIM7); 3.5 at PDZ-proteins (PDZ-protein PSMD9); 5.233 at PDZ-proteins (PDZ-protein SCRIB); 4.679 at PDZ-proteins (PDZ-protein SNTB1). The “final additive pKd” value on PDZ-proteins (PDZ-protein SNX27) was 4.662; on PDZ-proteins (PDZ-protein SYNJ2BP), 5.6853; on PDZ-proteins (PDZ-protein TX1B3), 4.927.
